Columns and labels:
[1] = system: P-glycoprotein; test: P-glycoprotein-mediated transport in human Calu3 cells expressing P-glycoprotein assessed as maximum apparent permeability from basolateral to apical side; assay type: ADME, cell-based, Calu-3
[2] = system: P-glycoprotein; test: P-glycoprotein-mediated transport in human Calu3 cells expressing P-glycoprotein assessed as maximum apparent permeability from apical to basolateral side at 50 uM in presence of in presence of 10 uM of p-glycoprotein and MRP transport inducer rifampin; assay type: ADME, cell-based, Calu-3
[3] = system: P-glycoprotein; test: P-glycoprotein-mediated transport in human Calu3 cells expressing P-glycoprotein assessed as maximum apparent permeability from apical to basolateral side at 50 uM in presence of in presence of 25 uM of p-glycoprotein and MRP transport inducer rifampin; assay type: ADME, cell-based, Calu-3
[4] = system: P-glycoprotein; test: P-glycoprotein-mediated transport in human Calu3 cells expressing P-glycoprotein assessed as maximum apparent permeability from basolateral to apical side at 50 uM in presence of in presence of 10 uM of p-glycoprotein and MRP transport inducer rifampin; assay type: ADME, cell-based, Calu-3
[5] = system: P-glycoprotein; test: P-glycoprotein-mediated transport in human Calu3 cells expressing P-glycoprotein assessed as maximum apparent permeability from basolateral to apical side at 50 uM in presence of in presence of 25 uM of p-glycoprotein and MRP transport inducer rifampin; assay type: ADME, cell-based, Calu-3
[6] = Apparent passive permeability across human Calu3 cells at < 10 ug/ml; assay type: ADME, cell-based, Calu-3
[7] = Cmax in healthy human at 400 […]; assay type: ADME, organism-based; conditions: in vivo
[8] = system: P-glycoprotein; test: Activity at P-glycoprotein in human Calu3 cells; assay type: ADME, cell-based, Calu-3
[9] = Apparent passive permeability across human Calu3 cells at 350 ug/ml; assay type: ADME, cell-based, Calu-3
[10] = system: P-glycoprotein; test: P-glycoprotein-mediated transport in human Calu3 cells expressing P-glycoprotein assessed as minimum apparent permeability from basolateral to apical side; assay type: ADME, cell-based, Calu-3
[11] = (§1) P-glycoprotein-mediated transport in human Calu3 cells expressing P-glycoprotein assessed as maximum apparent permeability from apical to basolateral side at 50 uM; assay type: ADME, cell-based, Calu-3; conditions: calu-3, 50 µM, TDE = time-dependent effect
[12] = system: P-glycoprotein; test: as §1; assay type: ADME, cell-based, Calu-3
[13] = (§2) P-glycoprotein-mediated transport in human Calu3 cells expressing P-glycoprotein assessed as maximum apparent permeability from basolateral to apical side at 50 uM; assay type: ADME, cell-based, Calu-3; conditions: calu-3, 50 µM, TDE = time-dependent effect
[14] = system: P-glycoprotein; test: as §2; assay type: ADME, cell-based, Calu-3
[15] = P-glycoprotein-mediated transport in human Calu3 cells assessed as efflux ratio of permeability from […] side at 50 uM; assay type: ADME, cell-based; conditions: calu-3, 50 µM

Papp B→A [1]: 13.6 ×10⁻⁶ cm/s
Papp A→B at 50 µM [2]: 4.35 ×10⁻⁶ cm/s
Papp A→B at 50 µM [3]: 4.08 ×10⁻⁶ cm/s
Papp B→A at 50 µM [4]: 11.9 ×10⁻⁶ cm/s
Papp B→A at 50 µM [5]: 12.5 ×10⁻⁶ cm/s
Papp [6]: 13.6 ×10⁻⁶ cm/s
Cmax [7]: 5000 ng/mL
Km [8]: 64.6 µg/mL
Papp at 350 ug/ml [9]: 7.9 ×10⁻⁶ cm/s
Papp B→A [10]: 7.9 ×10⁻⁶ cm/s
Papp [11]: tde
Papp A→B at 50 µM [12]: 5.25 ×10⁻⁶ cm/s
Papp [13]: tde
Papp B→A at 50 µM [14]: 10.5 ×10⁻⁶ cm/s
Ratio [15]: 2
Compound: COc1c(N2C[C@@H]3CCCN[C@@H]3C2)c(F)cc2c(=O)c(C(=O)O)cn(C3CC3)c12 [MOXIFLOXACIN]
